This is an account of results in patent publication US12630534B2 (TAKEDA PHARMACEUTICAL COMPANY LIMITED, priority 2020, dated 2026).

One assay addresses T1, human GPR139 (Homo sapiens, UniProt Q6DWJ6).
T1 construct: expressed in transfected cells; host or cells: CHO-TREx (Life Technologies) cells, expression induced with doxycycline
T1 sequence (Q6DWJ6 1-353): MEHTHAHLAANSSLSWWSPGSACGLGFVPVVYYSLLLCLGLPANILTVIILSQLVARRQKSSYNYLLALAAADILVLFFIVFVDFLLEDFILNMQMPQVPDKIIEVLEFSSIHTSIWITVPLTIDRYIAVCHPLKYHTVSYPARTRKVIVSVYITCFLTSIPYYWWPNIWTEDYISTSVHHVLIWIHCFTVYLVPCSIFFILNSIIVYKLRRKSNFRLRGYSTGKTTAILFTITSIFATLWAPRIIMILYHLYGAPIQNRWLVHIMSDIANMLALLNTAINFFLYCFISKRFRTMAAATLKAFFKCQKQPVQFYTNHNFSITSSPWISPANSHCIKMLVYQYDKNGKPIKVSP
The assay can be described thus: Inhibition rate of the amount of IP1 in GPR139-expressed CHO cells (inverse agonist assay, Test Example 2). The assay is classed as cell-based. Conditions: CHO, relative value, inhibition rate of Example Compound 2 in Test Example 1 defined as 100%. Put shortly: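 CHO-TREx cells with doxycycline-inducible human GPR139 (2 μg/mL, 17 h) were incubated with compound at 2000 cells/well for 40 min at 37° C. IP1 quantified by HTRF (665/615 nm ratio ×10000); inhibition rate expressed relative to a reference compound defined as […].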
Consider `CCn1cc(Cn2c(C)cn(-c3nc(N4CCO[C@H](C)C4)cc(C(F)(F)F)c3C)c2=O)cn1` [Example 45, 3-[(1-ethyl-1H-pyrazol-4-yl)methyl]-4-methyl-1-{3-methyl-6-[(2R)-2-methylmorpholin-4-yl]-4-(trifluoromethyl)pyridin-2-yl}-1,3-dihydro-2H-imidazol-2-one], for which the inhibition at 30 µM came out at 101%.

In the case of `CCn1cc(Cn2ccn(-c3nc(NCC4(F)CCC4)cc(C(F)(F)F)c3F)c2=O)cn1` [Example 121, 1-[(1-ethyl-1H-pyrazol-4-yl)methyl]-3-[3-fluoro-6-{[(1-fluorocyclobutyl)methyl]amino}-4-(trifluoromethyl)pyridin-2-yl]-1,3-dihydro-2H-imidazol-2-one], the inhibition at 30 µM is 101%.

As to `Cc1cn(Cc2cnn(C(C)C)c2)c(=O)n1-c1nc(N2CCOC(C)(C)C2)cc(C(F)(F)F)n1` [Example 135, 3-[4-(2,2-dimethylmorpholin-4-yl)-6-(trifluoromethyl)pyrimidin-2-yl]-4-methyl-1-{[1-(propan-2-yl)-1H-pyrazol-4-yl]methyl}-1,3-dihydro-2H-imidazol-2-one], the inhibition at 30 µM is 102%.

Take `CCn1cc(Cn2cc(C)n(-c3cc(N4C[C@@H](C)O[C@@H](C)C4)cc(C(F)(F)F)c3)c2=O)cn1` [Example 23, 3-{3-[(2R,6S)-2,6-dimethylmorpholin-4-yl]-5-(trifluoromethyl)phenyl}-1-[(1-ethyl-1H-pyrazol-4-yl)methyl]-4-methyl-1,3-dihydro-2H-imidazol-2-one]: the inhibition at 30 µM worked out at 100%.

Consider `Cc1cc(N2CCO[C@H](C)C2)cc(-n2cc(C)n(Cc3cnn(C(C)C)c3)c2=O)c1F` [Example 87, 1-{2-fluoro-3-methyl-5-[(2R)-2-methylmorpholin-4-yl]phenyl}-4-methyl-3-{[1-(propan-2-yl)-1H-pyrazol-4-yl]methyl}-1,3-dihydro-2H-imidazol-2-one], for which the inhibition at 30 µM was 98%.

Regarding `CCn1cc(Cn2ccn(-c3cc(N(C)C4CCOCC4)cc(C(C)(C)O)c3F)c2=O)cn1` [Example 113, 1-[(1-ethyl-1H-pyrazol-4-yl)methyl]-3-{2-fluoro-3-(2-hydroxypropan-2-yl)-5-[methyl(oxan-4-yl)amino]phenyl}-1,3-dihydro-2H-imidazol-2-one], the inhibition at 30 µM came to 103%.

On to `Cc1nn(-c2cc(C(F)(F)F)cc(N3CCC(F)(F)CC3)n2)c(=O)n1Cc1cnn(C(C)C)c1` [Example 142, 2-[6-(4,4-difluoropiperidin-1-yl)-4-(trifluoromethyl)pyridin-2-yl]-5-methyl-4-{[1-(propan-2-yl)-1H-pyrazol-4-yl]methyl}-2,4-dihydro-3H-1,2,4-triazol-3-one], for which the inhibition at 30 µM was found to be 100%.

As to `CCn1cc(Cn2ccn(-c3nc(N4CCOC(F)(F)C4)cc(C(F)(F)F)c3F)c2=O)cn1` [Example 123, 1-[6-(2,2-difluoromorpholin-4-yl)-3-fluoro-4-(trifluoromethyl)pyridin-2-yl]-3-[(1-ethyl-1H-pyrazol-4-yl)methyl]-1,3-dihydro-2H-imidazol-2-one], the inhibition at 30 µM amounted to 102%.

For `CCn1cc(Cn2cc(C)n(-c3cc(C(F)(F)F)cc(N4CCO[C@H](C)C4)n3)c2=O)cn1` [Example 18, 1-[(1-Ethyl-1H-pyrazole-4-yl)methyl]-4-methyl-3-{6-[(2R)-2-methylmorpholine-4-yl]-4-(trifluoromethyl)pyridine-2-yl}-1,3-dihydro-2H-imidazole-2-one], the inhibition at 30 µM came to 101%.

In the case of `CCn1cc(Cn2c(C)cn(-c3cc(N4CCOC(C)(C)C4)cc(Cl)c3F)c2=O)cn1` [Example 166, 1-[3-chloro-5-(2,2-dimethylmorpholin-4-yl)-2-fluorophenyl]-3-[(1-ethyl-1H-pyrazol-4-yl)methyl]-4-methyl-1,3-dihydro-2H-imidazol-2-one], the inhibition at 30 µM worked out at 98%.

Take `CCn1cc(Cn2c(C(F)(F)F)cn(-c3cc(N4CCO[C@H](C)C4)cc(C4CC4(F)F)c3F)c2=O)cn1` (stereo partly drawn) [Example 143, 1-{3-(2,2-difluorocyclopropyl)-2-fluoro-5-[(2R)-2-methylmorpholin-4-yl]phenyl}-3-[(1-ethyl-1H-pyrazol-4-yl)methyl]-4-(trifluoromethyl)-1,3-dihydro-2H-imidazol-2-one]: the inhibition at 30 µM stood at 101%.

Regarding `CCn1cc(Cn2c(C)cn(-c3cc(N4CCOC(C)(C)C4)cc(C4CC4)c3F)c2=O)cn1` [Example 164, 1-[3-cyclopropyl-5-(2,2-dimethylmorpholin-4-yl)-2-fluorophenyl]-3-[(1-ethyl-1H-pyrazol-4-yl)methyl]-4-methyl-1,3-dihydro-2H-imidazol-2-one], the inhibition at 30 µM came out at 97%.

Turning to `CCn1cc(Cn2cc(C)n(-c3cc(C4CC4)cc(N4CCOC(C)(C)C4)c3)c2=O)cn1` [Example 147, 3-[3-cyclopropyl-5-(2,2-dimethylmorpholin-4-yl)phenyl]-1-[(1-ethyl-1H-pyrazol-4-yl)methyl]-4-methyl-1,3-dihydro-2H-imidazol-2-one], the inhibition at 30 µM amounted to 100%.

As to `CCn1cc(Cn2c(C)c(C)n(-c3cc(OCC(F)(F)F)cc(N(C)C4CCOCC4)c3)c2=O)cn1` [Example 73, 1-[(1-ethyl-1H-pyrazol-4-yl)methyl]-4,5-dimethyl-3-{3-[methyl(oxan-4-yl)amino]-5-(2,2,2-trifluoroethoxy)phenyl}-1,3-dihydro-2H-imidazol-2-one], the inhibition at 30 µM worked out at 99%.

Take `CCn1cc(Cn2c(C)nn(-c3cc(C(F)(F)F)c(F)c(N4CCC(F)(F)CC4)n3)c2=O)cn1` [Example 154, 2-[6-(4,4-difluoropiperidin-1-yl)-5-fluoro-4-(trifluoromethyl)pyridin-2-yl]-4-[(1-ethyl-1H-pyrazol-4-yl)methyl]-5-methyl-2,4-dihydro-3H-1,2,4-triazol-3-one]: the inhibition at 30 µM is 98%.

As for `CCn1cc(Cn2c(C)cn(-c3cc(N4CCO[C@H](C)C4)cc(C(F)(F)F)c3F)c2=O)cn1` [Example 25, 3-[(1-ethyl-1H-pyrazol-4-yl)methyl]-1-{2-fluoro-5-[(2R)-2-methylmorpholin-4-yl]-3-(trifluoromethyl)phenyl}-4-methyl-1,3-dihydro-2H-imidazol-2-one], the inhibition at 30 µM is 100%.

Turning to `Cc1nn(-c2cc(N3CCO[C@H](C)C3)cc(C(F)(F)F)c2F)c(=O)n1Cc1cnn(C(C)C)c1` [Example 91, 2-{2-fluoro-5-[(2R)-2-methylmorpholine-4-yl]-3-(trifluoromethyl)phenyl}-5-methyl-4-{[1-(propane-2-yl)-1H-pyrazole-4-yl]methyl}-2,4-dihydro-3H-1,2,4-triazole-3-one], the inhibition at 30 µM worked out at 100%.

Regarding `Cc1cn(-c2cc(C(F)(F)F)cc(N3CCO[C@H](C)C3)n2)c(=O)n1Cc1cnn(C(C)C)c1` [Example 129, 4-methyl-1-{6-[(2R)-2-methylmorpholin-4-yl]-4-(trifluoromethyl)pyridin-2-yl}-3-{[1-(propan-2-yl)-1H-pyrazol-4-yl]methyl}-1,3-dihydro-2H-imidazol-2-one], the inhibition at 30 µM amounted to 100%.

Staying with this assay, now noted: relative value, inhibition rate of Example Compound 2 in Test Example 1 defined as 100%, 30 µM.
`CCn1cc(Cn2cc(C)n(-c3cc(C(F)(F)F)cc(OCC4CCCO4)n3)c2=O)cn1` (stereo not shown) [Example 108, 1-[(1-ethyl-1H-pyrazol-4-yl)methyl]-4-methyl-3-{6-[(oxolan-2-yl)methoxy]-4-(trifluoromethyl)pyridin-2-yl}-1,3-dihydro-2H-imidazol-2-one]: the “Inhibition Rate at 30 μM” value is listed as 102%.
